# How the values were obtained:
# [1] = system: OE33 (human adenocarcinoma of the esophagus); experiment: In vitro antiproliferative activity, OE33; assay type: cell-based; conditions: OE33, 72 hours
# Experimental: The in vitro antiproliferative assays for Compound (1) were conducted using a small panel of cancer cell lines including human squamous cell carcinoma of the esophagus (OE21, TE-8), human adenocarcinoma of the esophagus (OE33), and human uterine sarcoma (MES-SA, MES-SA-Dx5-Rx1). All cell lines were cultured in RPMI-1640 medium containing 10% FBS, and penicillin-streptomycin (culture medium), in a 5% CO2 incubator (37° C.). To each well of a 96 well plate (Becton, Dickinson and Company, 353219), 75 μL of cell suspension adjusted to a concentration of 4×10^4 cells/mL with the culture medium was added, and the cells were incubated overnight in a 5% CO2 incubator (37° C.). On the next day, 25 μL of Compound (1) in three-fold dilution series suspended in the culture medium was added to each well, and the resultant was incubated for 72 hours in a 5% CO2 incubator (37° C.). Then, cell viability was determined by CellTiter-Glo® Luminescent Cell Viability Assay (Promega) with 2013 EnVision™ Multilabel Reader (Perkin-Elmer, Wellesley, Mass.). Value of the wells containing cells without adding the test compounds was defined as 100% and the value of the wells containing no cells was defined as 0%. […] The P-gp susceptibility was calculated as the ratio of the IC50 value in MES-SA-Dx5-Rx1 cells, which overexpress P-gp, to the IC50 value in MES-SA cells.
# EDA-fibronectin = experiment: Effect on EDA-fibronectin in the FaDu subcutaneous model in mice; assay type: in vivo; conditions: Compound (1) 180 μg/kg + CTX 10 mg/kg on Day 1, five days after, compared with control tumors
# Experimental: A human squamous cell carcinoma of the head and neck (SCCHN) cell line FaDu, which had been cultured in an RPMI-1640 medium containing 10% FBS, and penicillin-streptomycin (culture medium), was adjusted to a concentration of 5×10^7 cells/mL with culture medium to prepare a cell suspension. The cell suspension was inoculated in a volume of 100 μL into a subcutaneous part of a right flank of nude mice, 6 weeks of ages (CAnN.Cg-Foxnlnu/CrlCrlj, female, Charles River Laboratories Japan, Inc.). Ten days after cell inoculation, the mice were grouped such that averages of the tumor volumes were substantially equal among the groups. The experiment was conducted on groups each consisting of 5 mice. Compound (1) was dissolved in DMSO and a solution was stored in the freezer before use. […] Five days after the single administration, tumor samples were collected and fixed with IHC Zinc Fixative (BD Pharmingen) at 4° C. for 24 hr. Paraffin-embedded tissues were sectioned (3 μm), mounted on positively charged slides, and air-dried. Sections were deparaffinized, conditioned and the antigens were retrieved using microwave with 1 mM EDTA at pH 6.0 for Tenascin-C. For EDA-fibronectin, the antigens retrieval procedure was not necessary. […]
# [2] = system: FaDu-Luc subcutaneous xenograft; experiment: FaDu s.c. xenograft model in combination with radiation; assay type: in vivo, mice
# Experimental: Luciferase-transduced FaDu-Luc cells were established by retrovirus-mediated gene transfer. […]. Then, helper-free recombinant retroviruses were produced by transfecting the above retroviral expression vector together with pGP and pE-Ampho plasmids (Takara Bio; Shiga, Japan), into 293T cells (ATCC; Manassas, USA). Next, FaDu cells were infected with the recombinant retroviruses, and were cultured for two weeks in the presence of puromycin (2 μg/mL). The infected cells were selected from a polyclonal proliferative population of the culture.
# A luciferase-transduced human SCCHN cell line FaDu-Luc, which had been cultured in an RPMI-1640 medium containing 10% FBS, and penicillin and streptomycin, was adjusted to a concentration of 5×10^7 cells/mL with Hank's Balanced Salt Solution to prepare a cell suspension. The cell suspension was inoculated in a volume of 100 μL into a subcutaneous part of a right thigh of nude mice, 6 weeks of ages (CAnN.Cg-Foxnlnu/CrlCrlj, female, Charles River Laboratories Japan, Inc.). Thirteen days after the cell inoculation, the tumor volume was analyzed using bioluminescence signal from FaDu-Luc cells. […] The bioluminescence signal was monitored using the IVIS […] series (PerkinElmer, Waltham, Mass.), consisting of a highly sensitive, cooled chargecoupled device camera. […] Data were analyzed using total photon flux emission (photons/second) in the ROIs. […]
smiles,measurement,setting,value
C=C1C[C@@H]2CC[C@@]34C[C@H]5O[C@H]6[C@@H](O3)[C@H]3O[C@H](CC[C@@H]3O[C@H]6C5O4)CC(=O)O[C@@H]3[C@@H](C)[C@@H]4O[C@@H]5C[C@]6(C[C@@H]7O[C@]8(C[C@H](C)[C@@H]9O[C@H](CN)[C@H](O)C[C@@H]9O8)C[C@H](C)[C@@H]7O6)O[C@@H]5C[C@@H]4O[C@H]3C[C@H]3O[C@@H](CC[C@@H]1O2)C[C@@H](C)C3=C [Compound (1)],antiproliferative activity,[1],potent antiproliferative agent
same,expression level of ED-A fibronectin,EDA-fibronectin,reduced
same,Tumor Regression (%),[2]; 0.09 mg/kg on day 1 and 8 + radiation 18 Gy on day 4 and day 11,97%
same,Tumor Regression (%),"[2]; 0.09 mg/kg on day 1 and 8, without radiation",0%

# Source: patent US11725015B2, “Macrocyclic compound and uses thereof” (President and Fellows of Harvard College, priority 2017, dated 2023)
